Measurements: patent US20070197658A1, “Polyamines and their use as antibacterial and sensitizing agents” (priority 2006, published 2007)
“And” between values parts separate entries of the source, which are not always exact repeats. Equal entries are not always repeated.

How the values were obtained:
[1] = tested on: E. coli ML-35p (OM) / E. coli ML-35 (IM); format: cell-based, Escherichia coli; settings: nitrocefin and ONPG hydrolysis
Description: OM permeabilizing activity was determined using E. coli ML-35p (parent i^− z^+ y^− ATCC 43827 transformed with pBR322 vector encoding periplasmic β-lactamase); the leakage of periplasmic β-lactamase activity was quantified using nitrocefin as a chromogenic substrate. IM permeabilizing activity was determined using E. coli ML-35 using o-nitrophenyl-β-D-galactopyranoside as the substrate to determine the β-galactosidase activity. In all experiments, PMB, PMBN, and melittin were used as reference compounds.
Nitrocefin (Calbiochem, San Diego, Calif.) was used for the determination of periplasmic β-lactamase activity since PADAC has been reported to be frequently insensitive to β-lactamase activity in clinically relevant strains of Staphylococcus. […] Harvested mid-log phase cultures of E. coli ML-35p (OD600nm adjusted to 0.5 AU) grown in trypticase soy broth were washed thrice with normal saline (0.9%). Nitrocefin was added to a final concentration of 50 μg/ml to the washed bacterial suspension, which was then added to the serially diluted compounds in a 384-well microtiter plate as described earlier. […] After various times of incubation at 37° C., β-lactamase activity was measured spectrophotometrically at 486 nm using an automated Spectramax M2 instrument (Molecular Devices, Sunnyvale, Calif.).
The IM permeability was measured using o-nitrophenyl-β-D-galactopyranoside (“ONPG”; Sigma, St. Louis, Mo.) as the substrate to determine the β-galactosidase activity. […] Washed cultures of E coli ML-35 mixed with 1.5 mM of ONPG in normal saline (0.9%) were added to serially diluted compounds in a 384-well microtiter plate. PMBN and melittin were used as the controls. The production of o-nitrophenol was quantified absorptimetrically at 420 nm after an incubation period of 1 hour at 37° C.
OM and IM permeability were determined respectively from dose-response curves of nitrocefin and ONPG hydrolysis rates as described in Lehrer et al., Concurrent assessment of inner and outer membrane permeabilization and bacteriolysis in E. coli by multiple-wavelength spectrophotometry, J. Immunol.

human whole blood = experiment: Hemolysis in fresh whole human blood (released hemoglobin, 570 nm); format: cell-based; settings: fresh undiluted EDTA human blood, 37° C., 30 min
Description: Melittin was used as a positive control.
1:233-245 (2004). Erythrocyte damage was measured using two different techniques. […] Biophys. Acta 1123:269-274 (1992).

S. aureus ATCC 13709 = experiment: microbe, parasite or virus in culture
Description: (§1) An equal volume of a suspension of either E. coli ATCC 9637 (FIG. 6A) or S. aureus ATCC 13709 (FIG. 6B) in 2× Mueller-Hinton broth was added using an automated liquid dispensing system to a 384 well plate, and bacterial growth was measured by absorptimetry as described in Materials and Methods.
(§2) In this example, E. coli strain 9637 and S. aureus strain 13709 were procured from ATCC (Manassas, Va.). For IM permeability assays, E. coli ML-35 (ATCC 43827), a lactose permease-deficient strain with constitutive cytoplasmic β-galactosidase activity was used (26). Calcium chloride transformation of E. coli ML-35 was performed using the plasmid vector pBR322 (6), encoding tetracycline and ampicillin resistance genes (Promega, Madison, Wis.). The transformed strain, E. coli ML-35p, selected by ampicillin resistance, was utilized for the OM permeabilization assay. E. coli ML-35p was maintained on trypticase soy agar plates with 50 μg/ml of ampicillin.
(§3) Minimum inhibitory concentrations of the acylpolyamines were determined by broth microdilution method (1) as per NCCLS guidelines. Mid-log phase Mueller-Hinton broth (MHB; non-cation supplemented) cultures of organisms (40 μl; OD600nm adjusted to 0.5 AU, and diluted ten-fold) were added to equal volumes of two-fold serially diluted acylpolyamines in a 384-well microtiter plate with the help of a Biotek Precision 2000 automated microplate pipetting system. The MICs of rifampicin, polymyxin B (PMB), polymyxin B nonapeptide (PMBN), naphthylacetyl spermine trihydrochloride and methoctramine tetrahydrochloride (Sigma, St. Louis, Mo.) were included as reference compounds for comparison of activity. The microtiter plates were sealed and incubated overnight at 37° C. The plates were read at an absorbance of 600 nm. The lowest concentration of an agent inhibiting growth of the organisms was recorded as the MIC.

E. coli ATCC 9637 [2] = experiment: microbe, parasite or virus in culture
Description: as §1, §2, §3

[3] = tested on: LPS-induced nitric oxide production in murine macrophages; experiment: NO inhibition, compound solubilized in DMSO or in HSA; format: cell-based, mouse; settings: DMSO vs HSA solubilization (FIG. 7C)
human serum albumin = human serum albumin (Homo sapiens, UniProt P02768); experiment: biochemical; settings: KD for HSA, isothermal titration calorimetry; single-site model
Chain of human serum albumin (P02768 25-609): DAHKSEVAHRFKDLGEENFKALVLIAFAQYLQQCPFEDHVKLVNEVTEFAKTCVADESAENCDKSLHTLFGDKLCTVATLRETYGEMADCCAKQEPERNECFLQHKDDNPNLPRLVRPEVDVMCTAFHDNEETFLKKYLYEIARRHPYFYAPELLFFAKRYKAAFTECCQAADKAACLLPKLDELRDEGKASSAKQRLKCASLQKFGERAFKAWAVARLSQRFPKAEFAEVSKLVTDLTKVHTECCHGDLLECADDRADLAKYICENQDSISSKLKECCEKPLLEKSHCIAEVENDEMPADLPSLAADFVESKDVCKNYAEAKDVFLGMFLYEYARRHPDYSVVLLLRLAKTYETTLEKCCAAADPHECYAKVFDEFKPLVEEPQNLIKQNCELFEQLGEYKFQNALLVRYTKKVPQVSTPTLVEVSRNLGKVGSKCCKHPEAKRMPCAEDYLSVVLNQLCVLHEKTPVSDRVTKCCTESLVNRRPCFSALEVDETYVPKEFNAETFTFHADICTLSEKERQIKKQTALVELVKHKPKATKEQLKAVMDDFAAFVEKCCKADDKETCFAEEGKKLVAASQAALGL

E. coli ATCC 9637 [4] = experiment: Effect of acylpolyamines on MIC of rifampicin (sensitization); format: cell-based, Escherichia coli; parameters: key to Sensitization to Rifampin: fold sensitization = MIC rifampicin alone / MIC with 10 μM compound; settings: E. coli strain 9637 preincubated with 10 μM of compound; MIC of rifampicin
Description: E. coli ATCC 9637 was seeded in MH broth in chequerboard format in a 384-well plate containing a constant concentration of compound and varying doses of rifampicin. Bacterial growth was monitored by turbidimetry at 600 nm. PMBN and melittin were used as positive controls. Wells containing no test-compound served as negative control. […] Fold sensitization was calculated as MICRifampicin alone/MICRifampicin+10μM Compound.
Perturbation of the outer membrane permeability barrier greatly sensitizes Gram negative organisms to otherwise impermeable hydrophobic solutes, rifampicin being a classic example To determine the effect of acylpolyamines on the MIC of hydrophobic antibiotic, rifampicin, E. coli strain 9637 was used. Overnight cultures of E. coli grown in MHB preincubated with 10 μM of acylpolyamines were added to serially diluted rifampicin in a 384-well microtiter plate. After incubation at 37° C. overnight, the MIC was determined. Controls included PMBN and melittin (positive) and rifampicin alone (negative). All experiments were run in triplicate.

Row | SMILES | membrane-permeabilizing activity (OM and IM) [1] | hemolysis in human whole blood (human whole blood) | MIC (S. aureus ATCC 13709; S. aureus ATCC 13709, Mueller-Hinton broth, overnight 37° C.) | MIC (E. coli ATCC 9637 [2]; E. coli ATCC 9637, Mueller-Hinton broth, overnight 37° C.) | potency of NO inhibition solubilized in DMSO or in HSA [3] | Kd (human serum albumin) | Sensitization to Rifampin (E. coli ATCC 9637 [4]) | MIC (S. aureus ATCC 13709; Staphylococcus aureus, ATCC13709) | MIC (E. coli ATCC 9637 [2]; Escherichia coli, ATCC9637)
1 | CC[C@H](C)[C@H](NC(=O)CN)C(=O)NCC(=O)N[C@@H](C)C(=O)N[C@H](C(=O)N[C@@H](CC(C)C)C(=O)N[C@@H](CCCCN)C(=O)N[C@H](C(=O)N[C@@H](CC(C)C)C(=O)N[C@H](C(=O)N[C@H](C(=O)NCC(=O)N[C@@H](CC(C)C)C(=O)N1CCC[C@H]1C(=O)N[C@@H](C)C(=O)N[C@@H](CC(C)C)C(=O)N[C@H](C(=O)N[C@@H](CO)C(=O)N[C@@H](Cc1c[nH]c2ccccc12)C(=O)N[C@H](C(=O)N[C@@H](CCCCN)C(=O)N[C@@H](CCCNC(=N)N)C(=O)N[C@@H](CCCCN)C(=O)N[C@@H](CCCNC(=N)N)C(=O)N[C@@H](CCC(N)=O)C(=O)N[C@@H](CCC(N)=O)C(N)=O)[C@@H](C)CC)[C@@H](C)CC)[C@@H](C)O)[C@@H](C)O)C(C)C)C(C)C [Melittin, melittin, reference compound] | potently membrane-permeabilizing | caused hemolysis at low micromolar concentrations | 5.5 μM and 15.6 μg/ml | 175 μM and 498.1 μg/ml |  |  |  |  | 
2 | CCCCCCCCCCCCCCC(=O)NCCCNCCCNCCCCNCCCN [Compound 4e] |  |  |  |  | identical potency | 1.98 µM and ~2 µM | 7.81 | 15.6 µM and 14.6 µg/mL | 31.2 µM and 29.3 µg/mL
